Columns and labels:
[1] = tested on: plasma of the blood of a sarcoma patient; assay: Example 5: plasma of a sarcoma patient in the polarisation microscope; settings: plasma with aqueous solution of the salt; dried plasma without it: light diffusion
Procedure: The blood of a sarcoma patient (10 ml) was centrifuged. A proportion of plasma was dried and detected in the polarisation microscope. Into the remaining proportion of plasma, an aqueous solution of lithium salt of MCPA acid was introduced, and the mixture was also detected in the polarization microscope.

[2] = molecular target: T1, Transthyretin (protein) of the blood plasma (Homo sapiens, UniProt P02766); assay: Example 3: Transthyretin of the blood plasma in test tube; format: biochemical
T1 construct: Transthyretin (protein) of the blood plasma; from tissue; host or cells: blood plasma
Procedure: Into a test tube (10 ml) with Transthyretin (protein) of the blood plasma (pH=7.0) in a concentration of 0.05 mmol/ml, four drops of 0.1% MCPA aqueous solution were introduced. The test tube was thermostatically controlled at a temperature of 37° C. After 15 minutes, the concentration of Transthyretin and the pH value of the blood plasma were measured. Transthyretin was not found, and the pH value was 6.0.

melanoma-16 = assay: Example 8: mice inoculated with melanoma-16; format: in vivo; settings: for surviving mice in which no blastomas were ascertained / surviving mice with blastomas of approximately 0.3×0.2 mm: 36th day, 5 mg as a drink; for mice with isolated pulmonal metastases at dissection: surviving mice killed on the 36th day
[3] = tested on: adenocarcinoma of the prostate gland; assay: Example 9: patient K., adenocarcinoma of the prostate gland, ultrasound, PSA and blood counts; format: in vivo, human; design: prostate had become smaller by (ultrasound): dose or concentration left out as unconfirmed
Procedure: An ultrasound test on 8 Aug. […] A PSA test on 8 Aug.
The patient declined an operation and chemotherapy. The patient was treated with the drug. On 9 Aug. […] The treatment lasted 10 days.

hepatitis C = assay: Example 12: patient N., hepatitis C, hepatargy and ascites, symptoms and blood counts; format: in vivo, human; settings: after 2 weeks (250 mg twice a day)
[4] = tested on: cancer cells PC-3 (prostate carcinoma); assay: Example 1: mitochondrial membranes of cancer cells PC-3 in test tubes; format: cell-based; settings: PC-3, dilution 10^−5 mmol/l, 24 hours at 37° C.
Procedure: After thermostatically controlling the aforementioned test tubes in the course of 24 hours at a temperature of 37° C., the contents were analyzed.

[5] = molecular target: T2, β-amyloid (protein) of the blood plasma (Homo sapiens, UniProt P05067); assay: Example 4: β-amyloid of the blood plasma in test tube; format: biochemical
T2 construct: Into a test tube with β-amyloid (protein) of the blood plasma (pH=7.4); from tissue; host or cells: blood plasma
Procedure: Into a test tube with β-amyloid (protein) of the blood plasma (pH=7.4) with a concentration of 0.1 mmol/ml, three drops of 0.1% sodium salt aqueous solution (called O.F.1) are introduced. The test tube was thermostatically controlled at a temperature of 37° C. After 15 minutes, the protein concentration and the pH value of the blood plasma were measured. The protein concentration amounted to 0.03 mmol/ml, and the pH value amounted to 7.2.

[6] = tested on: filtrate formed from melanoma 16; assay: Example 6: filtrate from melanoma 16 in the polarisation microscope; settings: filtrate with the preparation; without it the light polarization is slight
Procedure: A filtrate formed from melanoma 16 (10 ml) was accommodated in a quartz vessel and detected in the polarisation microscope. Thereafter, sodium salt (O.F.1) was introduced into the filtrate, and a repeat detection was carried out in the polarisation microscope.

T2 sequence (P05067 672-711 limits assumed): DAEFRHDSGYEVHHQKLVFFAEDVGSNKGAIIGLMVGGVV

Compound: Cc1cc(Cl)ccc1OCC(=O)[O-].[Li+] [lithium salt of MCPA acid]
- observation in the polarisation microscope [1]: double refraction of rays

Compound: Cc1cc(Cl)ccc1OCC(=O)O [4-chlorine-2-methyl phenoxyacetic acid]
- pH value of the blood plasma ([2]; after 15 minutes at 37° C., initial pH=7.0): 6.0
- concentration of Transthyretin ([2]; four drops of 0.1% aqueous solution, 37° C., after 15 minutes, initial 0.05 mmol/ml): not found
- surviving mice in which no blastomas were ascertained (melanoma-16): 3 mice
- surviving mice with blastomas of approximately 0.3×0.2 mm (melanoma-16): 3 mice
- mice died on the 23rd day (melanoma-16; single dose of 5 mg as a drink): 2 mice
- mice with isolated pulmonal metastases at dissection (melanoma-16): 2 mice
- pains during urination ([3]; 10 days of treatment): became less
- prostate had become smaller by (ultrasound) ([3]; 10 days, before approximately 90 cm^3): 30%
- Albumin (hepatitis C; before treatment 2.0): 4.7 g/dL
- Bilirubin (hepatitis C; before treatment 2.9): 1.7 mg/dL
- Aspart aminotransferasis (hepatitis C; before treatment 73.0): 51.0 units/l
- Alanine aminotransferasis (hepatitis C; before treatment 77.0): 71.4 units/l
- Gammaglutamyl transferasis (hepatitis C; before treatment 129.0): 82.0 units/l
- Lactate dehydrogenasis (hepatitis C; before treatment 543.5): 335.0 units/l

Compound: COc1cccc2c1C(=O)c1c(O)c3c(c(O)c1C2=O)C[C@@](O)(C(=O)CO)C[C@@H]3O[C@H]1C[C@H](N)[C@H](O)[C@H](C)O1 [Adriamycin, reference compound]
- mitochondrial membranes of cancer cells (appearance) [4]: membrane swelling
- mice alive on the 36th day of the test (melanoma-16; single dose of 5 mg as a drink): 2 mice

Compound: Cc1cc(Cl)ccc1OCC(=O)[O-].[Na+] [O.F.1]
- pH value of the blood plasma ([5]; after 15 minutes at 37° C., initial pH=7.4): 7.2
- protein (β-amyloid) concentration ([5]; three drops of 0.1% aqueous solution, 37° C., after 15 minutes, initial 0.1 mmol/ml): 0.03 mmol/mL
- observation in the polarisation microscope [6]: pronounced polarization
- surviving mice in which no blastomas were ascertained (melanoma-16): one
- surviving mice with blastomas of approximately 0.3×0.2 mm (melanoma-16): 8 mice
- mice died on the 23rd day (melanoma-16; single dose of 5 mg as a drink): one
- mice died on the 26th day (melanoma-16; single dose of 5 mg as a drink): one
- mice died on the 30th day (melanoma-16; single dose of 5 mg as a drink): 1 mice
- mice with isolated pulmonal metastases at dissection (melanoma-16): 4 mice

From patent publication US20090221708A1, “Medicinal preparation” (priority 2004, published 2009)
